One may read the Ki as the equilibrium dissociation constant of an inhibitor or competing ligand from its target.

Experimental findings from patent US20060100431A1, “Biologically active compounds” (Amura Therapeutics Limited, priority 2002, published 2006) are described below.

In test [1] the target is T1, CPB2.8ΔCTE (Leishmania mexicana, UniProt P36400).
T1 construct: Wild-type recombinant CPB without the C-terminal extention (i.e. CPB2.8ΔCTE); Dr. Jeremy Mottram (Wellcome Centre for Molecular Parasitology, University of Glasgow)
As to the kind of experiment: Leishmania mexicana cysteine protease B (CPB) peptidase activity assay (Ki). It is filed as biochemical. As to conditions: Ki, inhibitors of Leismania mexicana CPB protease. In short, it runs like this:
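Apparent Ki was derived by regression of activity against inhibitor concentration, assuming pure-competitive reversible binding. Reaction: 0.25 nM CPB lacking the C-terminal extension, pH 5.5 acetate buffer (1 mM EDTA, 200 mM NaCl, 10 mM DTT), 25 °C, followed by continuous substrate fluorescence.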

Test [2] concerns the target Wild-type cruzipain (Trypanosoma cruzi, UniProt P25779). As to the kind of experiment: Trypanosoma cruzi cruzipain peptidase activity assay (Ki). It is filed as biochemical. The conditions noted are these: read-out: Ki, inhibitors of cruzain and cruzipains. In short, it runs like this:
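Native cruzipain from T. cruzi Dm28 epimastigotes, 2.5 nM, in 100 mM sodium phosphate pH 6.75 with 1 mM EDTA and 10 mM L-cysteine, 25 °C, DMSO <1%. Rates taken from continuous fluorogenic substrate read; Ki by regression assuming reversible pure-competitive inhibition.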

T1 sequence (P36400 126-343, stated change not applied): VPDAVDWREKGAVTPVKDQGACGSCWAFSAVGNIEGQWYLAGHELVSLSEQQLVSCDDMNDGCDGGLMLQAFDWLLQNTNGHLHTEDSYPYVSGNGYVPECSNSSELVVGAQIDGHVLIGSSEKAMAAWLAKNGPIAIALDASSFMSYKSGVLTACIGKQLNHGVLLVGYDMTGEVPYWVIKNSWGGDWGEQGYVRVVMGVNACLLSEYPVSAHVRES
Chain of Wild-type cruzipain (P25779 whole entry): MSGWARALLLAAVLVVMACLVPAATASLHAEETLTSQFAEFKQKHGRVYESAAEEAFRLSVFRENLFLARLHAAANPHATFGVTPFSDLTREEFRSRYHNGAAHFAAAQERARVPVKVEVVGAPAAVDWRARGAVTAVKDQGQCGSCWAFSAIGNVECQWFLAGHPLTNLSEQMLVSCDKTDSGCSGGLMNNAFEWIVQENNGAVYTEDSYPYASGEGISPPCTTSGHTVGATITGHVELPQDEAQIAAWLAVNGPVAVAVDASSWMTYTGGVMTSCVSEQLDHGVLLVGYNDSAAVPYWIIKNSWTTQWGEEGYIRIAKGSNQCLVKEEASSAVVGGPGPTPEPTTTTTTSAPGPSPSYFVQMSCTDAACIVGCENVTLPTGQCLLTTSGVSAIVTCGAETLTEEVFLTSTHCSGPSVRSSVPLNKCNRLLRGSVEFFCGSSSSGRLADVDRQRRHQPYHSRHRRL

`NCc1cccc(C(=O)N[C@@H](Cc2ccc(O)cc2)C(=O)N2CC[C@@H]3[C@H]2C(=O)CN3C(=O)c2ccccc2)c1` [Example 319, (3aR,6aS)-3-Aminomethyl-N-[(1S)-2-(4-benzoyl-6-oxo-hexahydro-pyrrolo[3,2-b]pyrrole-1-yl)-1-(4-hydroxy-benzyl)-2-oxo-ethyl]-benzamide]: the inhibitory constant (Ki) in test [1] and in test [2] was less than 5 µM each time.
Regarding `NCc1cccc(C(=O)N[C@@H](Cc2ccc(O)cc2)C(=O)N2CC[C@@H]3[C@H]2C(=O)CN3C(=O)c2csc3ccccc23)c1` [Example 331, (3aR,6aS)-3-Aminomethyl-N-[(1S)-2-[4-(benzo[b]thiophene-3-carbonyl)-6-oxo-hexahydro-pyrrolo[3,2-b]pyrrole-1-yl]-1-(4-hydroxy-benzyl)-2-oxo-ethyl]-benzamide], the Ki in test [1] and in test [2] was less than 5 µM throughout.
For the molecule `CS(=O)(=O)c1ccccc1C(=O)N1CC(=O)[C@@H]2[C@H]1CCN2C(=O)[C@H](Cc1ccc(O)cc1)NC(=O)c1cccc(CN)c1` [Example 332, (3aR,6aS)-3-Aminomethyl-N-{(1S)-1-(4-hydroxy-benzyl)-2-[4-(2-methanesulfonyl-benzoyl)-6-oxo-hexahydro-pyrrolo[3,2-b]pyrrole-1-yl]-2-oxo-ethyl}-benzamide], the inhibitory constant (Ki) in test [1] and in test [2] was less than 5 µM throughout.
Consider `CC(=O)N[C@@H](CC(C)C)C(=O)N1CC(=O)[C@@H]2[C@H]1CCN2C(=O)[C@H](Cc1ccc(O)cc1)NC(=O)c1cccc(Br)c1` [Example 345, (3aR,6aS)-N-[(1S)-2-[4-((2S)-2-Acetylamino-4-methyl-pentanoyl)-6-oxo-hexahydro-pyrrolo[3,2-b]pyrrol-1-yl]-1-(4-hydroxy-benzyl)-2-oxo-ethyl]-3-bromo-benzamide], for which the Ki in test [1] and in test [2] was less than 5 µM each time.
